Reference: ChEMBL document CHEMBL1201862, “PubChem BioAssay data set” (2004)
The source made the active and inactive calls. Cut-off read from the data, not from the text of the source, for most assays here: actives have a measured EC50 and inactives only a lower limit.

Tests used:
[1] = inhibitors of SNCA 5'UTR-driven reporter translation, confirmation, H4 neuroglioma cells, luminescence (AID 1988); assay type: functional, cell-based
[2] = inhibitors of firefly luciferase expression or activity, dose response, H4 neuroglioma cells, luminescence (AID 1990); assay type: functional, cell-based
[3] = Luminescence Cell-Based Dose Response HTS to Identify Inhibitors of 5'UTR Stem-Loop Driven Prion Protein mRNA Translation in H4 Neuroglioblastoma Cells. [Related pubchem assays: 1827 (Project Summary), 1813 (Primary HTS)]; assay type: functional
[4] = Luminescence Cell-Based Dose Retest to Confirm Inhibitors of Cancer Stem Cells. [Related pubchem assays (depositor defined):AID2717, AID2721]; assay type: functional; conditions: Homo sapiens
Cytochrome P450 2D6 = Cytochrome P450 2D6 (Homo sapiens, UniProt P10635);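 note: CYP2D6 member of a cytochrome P450 panel assay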
Cytochrome P450 2D6, sequence (P10635 whole entry): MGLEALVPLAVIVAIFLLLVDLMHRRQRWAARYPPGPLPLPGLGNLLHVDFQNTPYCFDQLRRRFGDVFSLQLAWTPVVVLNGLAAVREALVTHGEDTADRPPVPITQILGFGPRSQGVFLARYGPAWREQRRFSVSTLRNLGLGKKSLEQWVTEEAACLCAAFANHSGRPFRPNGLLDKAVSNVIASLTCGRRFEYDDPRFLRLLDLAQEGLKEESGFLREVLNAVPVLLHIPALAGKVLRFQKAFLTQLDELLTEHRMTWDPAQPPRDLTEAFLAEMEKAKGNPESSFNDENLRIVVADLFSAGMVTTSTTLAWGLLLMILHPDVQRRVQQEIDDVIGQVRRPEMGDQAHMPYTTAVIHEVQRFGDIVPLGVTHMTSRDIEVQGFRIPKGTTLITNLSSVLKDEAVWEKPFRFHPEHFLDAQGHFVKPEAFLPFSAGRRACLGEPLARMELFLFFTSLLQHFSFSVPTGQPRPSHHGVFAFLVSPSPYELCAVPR

[5] = target: T1, Corticotropin-releasing factor receptor 2/Corticotropin-releasing factor-binding protein (Homo sapiens, UniProt P24387+Q13324); assay: Dose Response confirmation of uHTS hits for small molecule antagonists of the CRF-binding protein and CRF-R2 receptor complex.; assay type: functional; conditions: read-out: IC50_Mean
T1 sequence (Q13324 whole entry): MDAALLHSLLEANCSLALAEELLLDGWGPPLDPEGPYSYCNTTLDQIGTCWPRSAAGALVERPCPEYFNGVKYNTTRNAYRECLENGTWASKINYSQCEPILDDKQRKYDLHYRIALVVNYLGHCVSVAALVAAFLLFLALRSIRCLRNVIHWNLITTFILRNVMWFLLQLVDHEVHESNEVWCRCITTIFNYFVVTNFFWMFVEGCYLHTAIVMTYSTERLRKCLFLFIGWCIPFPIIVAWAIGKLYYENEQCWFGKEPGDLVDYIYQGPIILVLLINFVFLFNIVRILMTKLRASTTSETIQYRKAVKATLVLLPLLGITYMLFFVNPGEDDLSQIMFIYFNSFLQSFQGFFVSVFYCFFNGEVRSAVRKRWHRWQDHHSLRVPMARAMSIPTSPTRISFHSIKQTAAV
T1 sequence (P24387 whole entry): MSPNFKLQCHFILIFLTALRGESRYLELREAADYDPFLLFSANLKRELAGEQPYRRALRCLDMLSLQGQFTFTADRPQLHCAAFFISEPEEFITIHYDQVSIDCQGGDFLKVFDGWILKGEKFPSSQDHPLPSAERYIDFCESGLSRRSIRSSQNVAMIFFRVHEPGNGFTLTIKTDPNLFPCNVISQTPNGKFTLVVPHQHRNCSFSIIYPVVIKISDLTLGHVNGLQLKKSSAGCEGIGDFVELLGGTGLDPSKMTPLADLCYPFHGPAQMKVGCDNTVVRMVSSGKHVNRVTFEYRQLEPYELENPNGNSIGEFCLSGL

[6] = target: T1, Corticotropin-releasing factor receptor 2/Corticotropin-releasing factor-binding protein; assay: activators of CRF receptor 2 with binding protein – uHTS hits, confirmation (AID 602473); assay type: functional; conditions: read-out: EC50_Mean
Cytochrome P450 2C9 = Cytochrome P450 2C9 (Homo sapiens, UniProt P11712)
Cytochrome P450 2C9, sequence (P11712 whole entry): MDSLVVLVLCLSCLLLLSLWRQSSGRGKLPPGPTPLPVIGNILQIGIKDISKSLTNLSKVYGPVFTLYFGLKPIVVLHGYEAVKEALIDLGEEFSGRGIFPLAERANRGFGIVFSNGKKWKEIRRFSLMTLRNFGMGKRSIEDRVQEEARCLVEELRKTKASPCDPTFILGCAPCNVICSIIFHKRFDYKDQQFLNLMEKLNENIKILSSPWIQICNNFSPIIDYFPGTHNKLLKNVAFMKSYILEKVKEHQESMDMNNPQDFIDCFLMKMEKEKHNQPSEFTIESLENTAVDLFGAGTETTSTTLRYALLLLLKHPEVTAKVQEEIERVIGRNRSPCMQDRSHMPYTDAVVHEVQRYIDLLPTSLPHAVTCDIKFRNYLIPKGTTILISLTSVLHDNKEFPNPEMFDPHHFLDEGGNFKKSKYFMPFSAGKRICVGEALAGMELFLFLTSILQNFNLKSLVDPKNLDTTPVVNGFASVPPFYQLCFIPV

[7] = target: T2, Heat shock factor protein 1 (Mus musculus, UniProt P38532); assay: inhibition of MG132-induced HSE-luciferase signal, confirmation, cell-based, NIH3T3, luminescence, dose retest (AID 2382); assay type: functional;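 note: NIH3T3 fibroblasts with HSF1-driven luciferase reporter stressed by proteasome inhibitor MG132; luminescence from HSF1-driven luciferase expression after 8 hours of MG132 stress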
T2 sequence (P38532 whole entry): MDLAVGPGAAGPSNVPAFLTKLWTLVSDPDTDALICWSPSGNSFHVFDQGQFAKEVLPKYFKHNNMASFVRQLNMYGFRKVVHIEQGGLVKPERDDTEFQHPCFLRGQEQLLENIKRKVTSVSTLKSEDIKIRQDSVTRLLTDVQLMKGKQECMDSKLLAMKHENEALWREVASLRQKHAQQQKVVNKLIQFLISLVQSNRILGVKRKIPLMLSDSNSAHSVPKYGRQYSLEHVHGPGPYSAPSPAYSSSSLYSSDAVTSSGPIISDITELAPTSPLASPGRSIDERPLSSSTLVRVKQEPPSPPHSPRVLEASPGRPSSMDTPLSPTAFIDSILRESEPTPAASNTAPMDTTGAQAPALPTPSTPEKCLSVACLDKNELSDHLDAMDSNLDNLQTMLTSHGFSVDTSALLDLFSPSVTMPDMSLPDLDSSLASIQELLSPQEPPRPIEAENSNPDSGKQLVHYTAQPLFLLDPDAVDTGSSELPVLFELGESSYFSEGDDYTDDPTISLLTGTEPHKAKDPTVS

Cytochrome P450 3A4 = Cytochrome P450 3A4 (Homo sapiens, UniProt P08684);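 note: CYP3A4 tested as one member of a cytochrome P450 panel screen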
Cytochrome P450 3A4, sequence (P08684 whole entry): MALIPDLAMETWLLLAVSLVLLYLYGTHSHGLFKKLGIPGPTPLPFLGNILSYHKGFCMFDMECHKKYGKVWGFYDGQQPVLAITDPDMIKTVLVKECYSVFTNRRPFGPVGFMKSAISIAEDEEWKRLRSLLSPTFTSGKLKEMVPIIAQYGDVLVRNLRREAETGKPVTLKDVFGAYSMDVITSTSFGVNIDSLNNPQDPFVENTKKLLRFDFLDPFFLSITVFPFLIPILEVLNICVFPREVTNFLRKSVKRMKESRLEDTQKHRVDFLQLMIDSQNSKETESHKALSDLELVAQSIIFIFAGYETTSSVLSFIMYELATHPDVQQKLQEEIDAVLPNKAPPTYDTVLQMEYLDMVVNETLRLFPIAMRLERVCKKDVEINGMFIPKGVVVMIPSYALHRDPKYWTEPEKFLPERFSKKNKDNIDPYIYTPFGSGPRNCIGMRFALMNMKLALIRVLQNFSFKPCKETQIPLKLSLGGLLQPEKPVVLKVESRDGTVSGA

[8] = cytotoxicity toward NIH3T3 fibroblasts, dose response, counter-screen, cell-based, ATP luminescence, mouse fibroblasts (AID 2010); assay type: functional;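 note: cells exposed to compound for about 90 hours before reading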
[9] = inhibitors of intracellular T. cruzi replication, confirmation, NIH3T3 host cells, beta-gal luminescence (AID 2044); assay type: functional, cell-based;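 note: intracellular parasites grown in NIH/3T3 mouse fibroblasts as host cells; luminescent beta-galactosidase reporter signal from transgenic T. cruzi replicating inside host cells; inhibitors lower the luminescence signal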

Row | SMILES | EC50 [1] | EC50 [2] | EC50 [3] | IC50 [5] | EC50 [6] | also measured
1 | COc1cccc(Nc2ncc(C#N)c(N)n2)c1 | 14.5 µM (active) | 16.4 µM (active) | 14.2 µM (active) | – | – | –
2 | Nc1ccc(CCN2CCN(c3cccc(C(F)(F)F)c3)CC2)cc1 | – | – | – | – | – | AC50 [4]: 1.35 µM (active); AC50 (Cytochrome P450 2D6): 12.6 µM (inconclusive)
3 | CCC(NN1CCCCC1)=C1C(=O)NC(=O)NC1=O | 10.2 µM (active) | 11.9 µM (active) | > 120 µM (not active) | – | – | –
4 | Cc1nn(Cc2ccccc2Cl)c(C)c1NC(=O)c1nc2ncccn2n1 | – | – | – | > 47.1 µM (inactive) | > 53 µM (inactive) | –
5 | CC(C)(C)c1cc(C(=O)O)nn1-c1ccccc1 | – | – | – | > 47.1 µM (inactive) | > 53 µM (inactive) | –
6 | Cc1ccc(NC(=O)CSc2nc3ccccc3c(=O)n2CCCC(=O)NCCCN2CCOCC2)cc1 | – | – | – | > 47.1 µM (inactive) | > 53 µM (inactive) | –
7 | O=C(COC(=O)c1ccncc1)Nc1cc(Cl)ccc1Cl | – | – | – | > 47.1 µM (inactive) | > 53 µM (inactive) | –
8 | CN(C)c1ccc(-c2nc3n(n2)C(c2cccnc2)C2=C(O)CC(C)(C)CC2=N3)cc1 (configuration not stated) | – | – | – | – | – | AC50 (Cytochrome P450 2C9): 28.2 µM (inconclusive); AC50 (Cytochrome P450 2D6): 17.8 µM (inconclusive); EC50 [7]: > 195 µM (not active)
9 | CCOc1ccc(-n2c(SCC(=O)Nc3ccc(OC)cc3)nc3c(c2=O)SCC3)cc1 | – | – | – | – | – | AC50 (Cytochrome P450 2C9): 3.55 µM (inconclusive); AC50 (Cytochrome P450 2D6): 15.8 µM (inconclusive); AC50 (Cytochrome P450 3A4): 7.94 µM (inconclusive)
10 | CC(C)C(NC(=O)c1ccco1)C(=O)NC1CCCCCC1 (configuration not stated) | – | – | – | > 47.1 µM (inactive) | > 53 µM (inactive) | –
11 | CCc1ccc(CNn2cnnc2SCC(=O)NC(C)(C)C)cc1 | > 120 µM (not active) | > 120 µM (not active) | > 120 µM (not active) | – | – | –
12 | O=C(COc1ncnc2sccc12)N1CCN(C(=O)c2ccco2)CC1 | > 120 µM (not active) | > 120 µM (not active) | > 120 µM (not active) | – | – | –
13 | Nc1ccc(C(=O)N/N=C/c2cn(Cc3ccc(F)cc3)c3ccccc23)cc1 | 7.7 µM (active) | 10.1 µM (active) | 17.7 µM (active) | – | – | –
14 | Cc1ccc(C(=O)COc2cc(O)c3c(=O)cc(-c4ccccc4)oc3c2)cc1 | – | – | – | > 47.1 µM (inactive) | > 53 µM (inactive) | –
15 | COCCN(Cc1ccccc1)C(S)=Nc1ccc(Cl)cc1 | 16.8 µM (active) | > 120 µM (not active) | > 120 µM (not active) | – | – | EC50 [7]: 30.3 µM (active)
16 | CCOc1ccccc1NC(=O)C1CCCN1S(=O)(=O)c1ccccc1C(F)(F)F (configuration not stated) | – | – | – | > 47.1 µM (inactive) | > 53 µM (inactive) | –
17 | CCOC(=O)c1ccc(N2CN(CC)CN=C2S)cc1 | > 120 µM (not active) | > 120 µM (not active) | > 120 µM (not active) | – | – | –
18 | COc1ccc(OCCCC(=O)Nc2cccnc2)cc1 | – | – | – | > 47.1 µM (inactive) | > 53 µM (inactive) | –
19 | CCOc1ccccc1N(C)C(=O)Cn1ncc2c3ccccc3nc-2c1O | – | – | – | > 47.1 µM (inactive) | > 53 µM (inactive) | –
20 | COCc1cc(O)n2nc(-c3ccccc3)cc2n1 | – | – | – | > 47.1 µM (inactive) | > 53 µM (inactive) | –
21 | CC(=O)N(C(C)=O)c1ncnc2c1c(-c1ccc(Cl)cc1)nn2C(C)(C)C | 25.1 µM (active) | 13.1 µM (active) | 20.1 µM (active) | – | – | EC50 [8]: 4.21 µM (active); EC50 [9]: 0.512 µM (active)
22 | CCOC(=O)c1[nH]c2ccccc2c1NC(=O)Nc1ccc(OC)cc1 | – | – | – | > 47.1 µM (inactive) | > 53 µM (inactive) | –
